The values below come from patent US10183036B2, “Use of nicotinic acid riboside or nicotinamide riboside derivatives, and reduced derivatives thereof, as NAD+ increasing precursors” (Chromadex Inc., priority 2016, dated 2019).

One series concerns Hela cells. The experiment in a line: NAD content in cultured Hela cells supplemented with NAD+ precursor (EnzyChrom NAD+/NADH assay kit). Particulars: 100 μM precursor, 24 h at 37° C., control = 100.0; for activity at 100 µM: Homo sapiens. It counts as cell-based. The method, then:
Hela cells (passages 5-9) were grown in cell culture medium DMEM with 10% serum and were seeded in 6-well plates with a density of 3×10^5 cells per well containing 1 ml of culture medium overnight. The wells were aspirated, washed with PBS and 2 mL of fresh cell culture media was added. […] The media was aspirated and the wells washed with PBS, and for each condition 1×10^5 cells were isolated and analyzed using an ENZYCHROM™ NAD+/NADH ASSAY KIT (E2ND-100) following the manufacturer protocol (BioAssay Systems, Hayward, Calif.). This standard assay provides a quantitative colorimetric determination of NAD+/NADH at 565 nm.
Further, FIG. 9 presents the same data as a fold-increase in NAD over control. FIG. 8 presents a measurement of absolute NAD values (μM) in Hela cells (n=4) cultured in growth media supplemented with 100 μM of the corresponding NAD^+ precursor (nicotinyl riboside test compound) for 24 hours, versus control (NAD content in cells measured in the absence of treatment compound). A control value was determined for each replicate data set.

A short description of series [1]: Stability in aqueous solution at various temperature and pH. Format: physicochemical. As for the experimental part: Nicotinamide riboside (NR) was prepared in 1000 ppm aqueous solution (w/v) at 2.5, 3.5 and 4.7 pH levels. Nicotinic acid riboside (NAR) was prepared n 1000 ppm aqueous solution (w/v) at 2.5, 3.5 and 6.2 pH levels. The six sample solutions were aliquoted into various small sealed vials to be used as individual sample pull points for analysis.

The next series has as its system cells. Particulars: Kulikova et al. 2015; cited from earlier work.

Turning to `CC(=O)OC[C@H]1O[C@@H]([n+]2cccc(C(=O)O)c2)[C@H](OC(C)=O)[C@@H]1OC(C)=O` [NAR TA, 1-(2′,3′,5′-triacetyl-beta-D-ribofuranosyl)-nicotinic acid], the activity at 100 µM in the series on Hela cells was found to be 173%.
Consider `O=C(O)c1ccc[n+]([C@@H]2O[C@H](CO)[C@H](O)[C@H]2O)c1` [NAR, Nicotinic acid riboside], for which the “assay (concentration remaining) after storage” value in series [1] (1000 ppm aqueous solution, 4° C., after 140 days) is listed as “greater than 95%”. Further, in series [1] (aqueous solution, 4° C. and 25° C., all measured pH levels), the “stability in comparison to NR” value is reported as “much greater stability”. Further, the “stability over time in weeks” value in series [1] (aqueous solution, higher temperature and lower pH) is on record as “markedly decreased”. Further, in the series with cells, the “concentration that supports cell survival” value is recorded as “about 1 micromolar”. Besides, in the series on Hela cells, the activity at 100 µM is 295%.
As to `O=C(O)C1=CN([C@@H]2O[C@H](CO)[C@@H](O)[C@H]2O)C=CC1` [NARH, 1-(beta-D-ribofuranosyl)-1,4-dihydronicotinic acid], in the series on Hela cells, the activity at 100 µM is 147%.
Take `CC(=O)OC[C@H]1O[C@@H]([n+]2cccc(C(N)=O)c2)[C@H](OC(C)=O)[C@@H]1OC(C)=O` [NR TA, 1-(2′,3′,5′-triacetyl-beta-D-ribofuranosyl)-nicotinamide]: the activity at 100 µM in the series with Hela cells amounted to 199%.
As for `NC(=O)c1ccc[n+]([C@@H]2O[C@H](CO)[C@@H](O)[C@H]2O)c1` [NR, Nicotinamide riboside], the “amount required to maintain viability relative to NAR” value in the series on cells is listed as 10 times. Further, in the series on Hela cells, the activity at 100 µM is 141%.
As to `CC(=O)OC[C@H]1O[C@@H](N2C=CCC(C(N)=O)=C2)[C@H](OC(C)=O)[C@@H]1OC(C)=O` [NRH TA, 1-(2′,3′,5′-triacetyl-beta-D-ribofuranosyl)-1,4-dihydronicotinamide], the activity at 100 µM in the series with Hela cells came to 146%.
For the compound `CC(=O)O[C@@H]1[C@@H](COC(=O)c2cccnc2)OC(=O)[C@@H]1OC(C)=O` [cyclic, 2′,3′-diacetyl-5′-nicotinoyl ribolactone], in the series with Hela cells, the “NAD % vs control” value is reported as 178.0%.
